Data reported in ChEMBL document CHEMBL3108758, “Design, synthesis, and biological evaluation of potent and selective class IIa histone deacetylase (HDAC) inhibitors as a potential therapy for Huntington's disease” (J Med Chem, 2013).

What was measured:
[1] = Tmax in C57BL/6JO1aHsd mouse muscle at 10 mg/kg, po; type: ADME, organism-based, Muscle tissue; parameters: dose 10 mg/kg, route oral
Brain [2] = experiment: Dose normalized AUC in C57BL/6JO1aHsd mouse brain at 10 mg/kg, po; type: ADME, organism-based; parameters: dose 10 mg/kg, route oral; conditions: in vivo
Muscle tissue [3] = experiment: Dose normalized AUC in C57BL/6JO1aHsd mouse muscle at 10 mg/kg, po; type: ADME, organism-based; parameters: dose 10 mg/kg, route oral; conditions: in vivo
Plasma [4] = experiment: Cmax in C57BL/6JO1aHsd mouse plasma at 10 mg/kg, po; type: ADME, organism-based; parameters: dose 10 mg/kg, route oral; conditions: in vivo
Brain [5] = experiment: Cmax in C57BL/6JO1aHsd mouse brain at 10 mg/kg, po; type: ADME, organism-based; parameters: dose 10 mg/kg, route oral; conditions: in vivo
Muscle tissue [6] = experiment: Cmax in C57BL/6JO1aHsd mouse muscle at 10 mg/kg, po; type: ADME, organism-based; parameters: dose 10 mg/kg, route oral; conditions: in vivo
[7] = Oral bioavailability in C57BL/6JO1aHsd mouse at 10 mg/kg; type: ADME, organism-based; conditions: in vivo
[8] = Volume of distribution at steady state in C57BL/6JO1aHsd mouse at 5 mg/kg, iv; type: ADME, organism-based; parameters: dose 5 mg/kg, route intravenous; conditions: in vivo, read-out: Vdss
[9] = Tmax in C57BL/6JO1aHsd mouse plasma at 10 mg/kg, po; type: ADME, organism-based; parameters: dose 10 mg/kg, route oral
[10] = Tmax in C57BL/6JO1aHsd mouse brain at 10 mg/kg, po; type: ADME, organism-based; parameters: dose 10 mg/kg, route oral
Plasma [11] = experiment: Dose normalized AUC in C57BL/6JO1aHsd mouse plasma at 10 mg/kg, po; type: ADME, organism-based; parameters: dose 10 mg/kg, route oral; conditions: in vivo
[12] = Ratio of drug uptake from brain to plasma in C57BL/6JO1aHsd mouse at 10 mg/kg, po; type: ADME, organism-based; parameters: dose 10 mg/kg, route oral; conditions: read-out: BPR
[13] = Ratio of drug uptake from muscle to plasma in C57BL/6JO1aHsd mouse at 10 mg/kg, po; type: ADME, organism-based; parameters: dose 10 mg/kg, route oral

Tmax [1] [min]	AUC/dose (Brain [2]) [nM·kg·h/mg]	AUC/dose (Muscle tissue [3]) [nM·kg·h/mg]	Cmax normalised (Plasma [4]) [nM·kg/mg]	Cmax normalised (Brain [5]) [nM·kg/mg]	Cmax normalised (Muscle tissue [6]) [nM·kg/mg]	bioavailability [7] [%]	Vd [8] [L/kg]	Tmax [9] [min]	Tmax [10] [min]	AUC/dose (Plasma [11]) [nM·kg·h/mg]	Kp [12]	Kp [13]	SMILES
30	700	810	1200	670	730	84	0.74	30	30	1300	–	–	O=C(NO)[C@@H]1[C@H](c2ccccc2)[C@H]1c1ccc(-c2cnco2)cc1
60	17	1000	280	5.7	160	62	4.6	30	30	1100	–	–	O=C(NO)[C@@H]1[C@H](c2ccccc2)[C@H]1c1ccc2c(c1)CN(CC(F)(F)F)C2=O
60	390	1000	810	200	420	73	1.6	30	60	1500	0.3	0.4	O=C(NO)[C@@H]1[C@H](c2ccccc2)[C@H]1c1ccc(-c2cnc(C3CC3)o2)cc1
